Data reported in publication PMC8044178, “Structural basis of norepinephrine recognition and transport inhibition in neurotransmitter transporters” (Nature Communications, 2021).
Values joined by “and” are separate entries in the source; they are usually repeats but may differ in a detail not shown here. Equal values may be shown once.

Experiments:
dDAT D121G/S426M = conditions: cited from earlier work
dDATmfc = target: T1, dDATmfc (Drosophila melanogaster, UniProt Q7K4Y6, DEL162-202/F471L/L415A/V74A); assay: [3H] nisoxetine binding, scintillation proximity assay, purified dDATmfc; conditions: for Specific CPM/p.mole protein: DATmfc, single replicates
T1 construct: GFP-8x-His (C); made in house; host or cells: HEK293S GnTI- cells, BacMam baculovirus transduction
Description: (§1) Binding assays were performed with 20 nM of purified dDAT protein by scintillation proximity assay. For determining nisoxetine Kd, [^3H] Nisoxetine (Perkin Elmer) (in 1:5 molar ratio) was used in the range of 0.1 nM to 500 nM with 100 µM desipramine added to the control samples. Competition assays were done with 50 nM [^3H] […] The assays were done in 1 mM DDM, 0.2 mM CHS, 20 mM Tris-Cl (pH 8), 300 mM NaCl and 5% glycerol. The background values were subtracted to plot the final curves in GraphPad prism v5.0.1 and the Kd values were calculated. The IC50 values obtained from binding competition assays were used to deduce the Ki values by Cheng–Prusoff’s equation.

dDATNET = target: T2, dDATNET (Drosophila melanogaster, UniProt Q7K4Y6, D121G/DEL162-202/F471L/L415A/S426M/V74A); assay: [3H] nisoxetine binding, scintillation proximity assay, purified dDATNET; conditions: for Specific CPM/p.mole protein: DAT_NET, single replicates
T2 construct: GFP-8x-His (C); made in house; host or cells: HEK293S GnTI- cells, BacMam baculovirus transduction
Description: as §1

WT dDAT = conditions: read-out: nisoxetine-binding affinity Kd; cited from earlier work
hNET = conditions: read-out: nisoxetine-binding affinity Kd; cited from earlier work

| Structure (SMILES) | increment in ability to compete for nisoxetine / affinity with hNET-like mutations D121G and S426M in subsite B (dDAT D121G/S426M) [fold] | Kd (dDATmfc) [nM] | Specific CPM/p.mole protein (dDATmfc; Nisox 0.1 nM) | Specific CPM/p.mole protein (dDATmfc; Nisox 1 nM) | Specific CPM/p.mole protein (dDATmfc; Nisox 3 nM) | Specific CPM/p.mole protein (dDATmfc; Nisox 10 nM) | Specific CPM/p.mole protein (dDATmfc; Nisox 30 nM) | Specific CPM/p.mole protein (dDATmfc; Nisox 100 nM) | Specific CPM/p.mole protein (dDATmfc; Nisox 300 nM) | Specific CPM/p.mole protein (dDATmfc; Nisox 500 nM) | Specific CPM/p.mole protein (dDATNET; Nisox 0.1 nM) [CPM/p.mole protein] | Specific CPM/p.mole protein (dDATNET; Nisox 100 nM) | Specific CPM/p.mole protein (dDATNET; Nisox 300 nM) | Specific CPM/p.mole protein (dDATNET; Nisox 500 nM) | Kd (dDATNET; Nisoxetine Kd, dDATNET) [nM] | Kd (dDATNET; dissociation constants (Kd) for nisoxetine, range over the dDAT constructs used in this study (dDATNET, dDATmfc)) [nM] | Kd (WT dDAT) [nM] | Kd (hNET) [nM] |
| --- | --- | --- | --- | --- | --- | --- | --- | --- | --- | --- | --- | --- | --- | --- | --- | --- | --- | --- |
| COC(=O)[C@H]1[C@@H](OC(=O)c2ccccc2)C[C@@H]2CC[C@H]1N2C [cocaine] | 10 |  |  |  |  |  |  |  |  |  |  |  |  |  |  |  |  |  |
| CNCCC(Oc1ccccc1OC)c1ccccc1 (stereo not drawn) [nisoxetine] |  | 3.82 ± 0.39 | 7 CPM/p.mole protein and 10 CPM/p.mole protein and 3 CPM/p.mole protein and 24 CPM/p.mole protein and 15 CPM/p.mole protein (2×) and 14 CPM/p.mole protein and 9 CPM/p.mole protein and 6 CPM/p.mole protein | 126 CPM/p.mole protein and 128 CPM/p.mole protein and 141 CPM/p.mole protein and 114 CPM/p.mole protein and 102 CPM/p.mole protein and 95 CPM/p.mole protein and 97 CPM/p.mole protein and 78 CPM/p.mole protein and 120 CPM/p.mole protein | 292 CPM/p.mole protein and 269 CPM/p.mole protein and 300 CPM/p.mole protein and 210 CPM/p.mole protein and 245 CPM/p.mole protein and 211 CPM/p.mole protein and 113 CPM/p.mole protein and 184 CPM/p.mole protein and 198 CPM/p.mole protein | 455 CPM/p.mole protein (2×) and 499 CPM/p.mole protein and 413 CPM/p.mole protein (2×) and 477 CPM/p.mole protein and 371 CPM/p.mole protein (2×) and 397 CPM/p.mole protein | 491 CPM/p.mole protein and 537 CPM/p.mole protein and 503 CPM/p.mole protein and 506 CPM/p.mole protein and 442 CPM/p.mole protein (2×) and 439 CPM/p.mole protein and 427 CPM/p.mole protein and 408 CPM/p.mole protein | 566 CPM/p.mole protein and 545 CPM/p.mole protein and 533 CPM/p.mole protein and 507 CPM/p.mole protein and 558 CPM/p.mole protein and 473 CPM/p.mole protein and 465 CPM/p.mole protein and 441 CPM/p.mole protein and 405 CPM/p.mole protein | 627 CPM/p.mole protein and 611 CPM/p.mole protein and 570 CPM/p.mole protein and 569 CPM/p.mole protein and 527 CPM/p.mole protein and 520 CPM/p.mole protein and 528 CPM/p.mole protein and 490 CPM/p.mole protein and 436 CPM/p.mole protein | 632 CPM/p.mole protein and 609 CPM/p.mole protein and 595 CPM/p.mole protein and 628 CPM/p.mole protein and 619 CPM/p.mole protein and 565 CPM/p.mole protein and 554 CPM/p.mole protein and 465 CPM/p.mole protein and 467 CPM/p.mole protein | 20 | 565 CPM/p.mole protein and 636 CPM/p.mole protein and 590 CPM/p.mole protein and 524 CPM/p.mole protein and 548 CPM/p.mole protein and 546 CPM/p.mole protein and 490 CPM/p.mole protein and 531 CPM/p.mole protein and 494 CPM/p.mole protein | 687 CPM/p.mole protein and 533 CPM/p.mole protein (2×) and 630 CPM/p.mole protein and 583 CPM/p.mole protein and 563 CPM/p.mole protein and 581 CPM/p.mole protein and 730 CPM/p.mole protein and 516 CPM/p.mole protein | 735 CPM/p.mole protein and 683 CPM/p.mole protein and 709 CPM/p.mole protein and 618 CPM/p.mole protein and 586 CPM/p.mole protein and 593 CPM/p.mole protein and 630 CPM/p.mole protein and 670 CPM/p.mole protein and 642 CPM/p.mole protein | 2.79 ± 0.27 | 2.8 to 3.8 | 5 | 1.9 |
